Results on six molecules are retold here after BindingDB's records for patent US20240262835 (Antengene Discovery, 2024).

Sequence of Methylosome protein 50/Protein arginine N-methyltransferase 5 (O14744 whole entry): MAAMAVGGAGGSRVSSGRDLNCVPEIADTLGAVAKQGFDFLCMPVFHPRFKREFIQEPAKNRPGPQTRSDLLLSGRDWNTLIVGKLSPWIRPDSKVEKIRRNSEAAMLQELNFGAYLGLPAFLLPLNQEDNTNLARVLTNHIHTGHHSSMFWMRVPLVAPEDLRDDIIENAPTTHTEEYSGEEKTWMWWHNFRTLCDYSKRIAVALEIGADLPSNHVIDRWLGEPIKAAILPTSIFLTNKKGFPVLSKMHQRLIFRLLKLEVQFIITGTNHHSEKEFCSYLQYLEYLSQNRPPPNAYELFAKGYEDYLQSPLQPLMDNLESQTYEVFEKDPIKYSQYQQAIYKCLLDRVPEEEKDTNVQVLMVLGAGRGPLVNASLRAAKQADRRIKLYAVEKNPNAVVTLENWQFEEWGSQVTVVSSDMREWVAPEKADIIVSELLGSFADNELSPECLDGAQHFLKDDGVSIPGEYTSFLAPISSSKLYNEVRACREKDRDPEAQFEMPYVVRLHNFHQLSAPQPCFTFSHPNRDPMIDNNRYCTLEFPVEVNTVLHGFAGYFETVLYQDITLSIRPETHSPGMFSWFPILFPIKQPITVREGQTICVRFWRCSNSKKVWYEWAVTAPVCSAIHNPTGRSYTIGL
Sequence of Methylosome protein 50/Protein arginine N-methyltransferase 5 (Q9BQA1 whole entry, further chain): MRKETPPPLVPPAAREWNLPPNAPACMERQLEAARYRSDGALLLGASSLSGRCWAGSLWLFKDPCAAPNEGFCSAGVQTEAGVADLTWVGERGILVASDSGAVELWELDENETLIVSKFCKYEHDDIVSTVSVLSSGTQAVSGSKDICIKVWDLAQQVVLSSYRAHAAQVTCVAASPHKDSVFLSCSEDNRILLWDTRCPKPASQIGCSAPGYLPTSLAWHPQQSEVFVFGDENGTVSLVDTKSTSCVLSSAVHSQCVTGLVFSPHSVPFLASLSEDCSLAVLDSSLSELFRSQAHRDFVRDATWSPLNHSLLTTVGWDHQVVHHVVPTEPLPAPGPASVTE

This experiment has as its target Methylosome protein 50/Protein arginine N-methyltransferase 5 (Homo sapiens, UniProt O14744). Briefly: PRMT5/MEP50 HotSpot Methyltransferase Assay. As to the method: Table 2: The assay used recombinant full-length histone H2A as the substrate of PRMT5. Enzymatic transfer of the tritiated methyl group from S-adenosyl-L-[methyl-3H]methionine (3H-SAM) to the histone H2A protein generated a radiolabeled histone H2A by measuring in a scintillation counter to determine the activity of PRMT5 enzyme in the presence and absence of compound. The assay reactions were conducted in the presence of 100 nM MTA. Briefly, compounds were solubilized in 100% DMSO at the highest concentration of 10 mM. […] Control samples lacking compound, PRTM5/MEP50 complex or various reaction components also were prepared and processed in parallel with compound test samples. SAH was used as a positive control for assay validation. To measure PRMT5 inhibitory activity, 1 nM PRTM5/MEP50 complex was preincubated with test compound in assay buffer containing 5 μM full-length histone H2A for 15 minutes at room temperature. The enzymatic reaction was initiated by adding 1 μM 3H-SAM (final concentration) and the mixture was incubated at 30° C. for 1 hour. The reaction was stopped and transferred to filter paper for detection. The amount of tritiated H2A in each sample was determined using a scintillation counter.
By IC50 is commonly meant the concentration that inhibits the measured activity by half. Read a low IC50 as higher potency. `Cn1ncc(-c2ccc3c(c2)nc(N)c2cncn23)c1-c1c(F)cc2ccccc2c1C#N` [US20240262835, Compound 1] yielded an IC50 of 8 nM.
Take `C[C@H](c1ncccn1)N(Cc1ccc(C(F)(F)F)cn1)C(=O)c1ccc2nc(N)c3cncn3c2c1` [US20240262835, Compound 3]: the 50% inhibitory concentration (IC50) came out at 64 nM.
`C[C@H]1CC[C@H](c2ccc3c(c2)CCC(=O)N3)N(C(=O)c2ccc3nc(N)c4cncn4c3c2)C1` [US20240262835, Compound 4] registered an IC50 of 6 nM.
`C[C@H](c1ncccn1)N(Cc1ccc(C(F)(F)F)cn1)C(=O)c1ccc2nc(N)n3cncc3c2c1` [US20240262835, Compound 5] registered a concentration for half-maximal inhibition (IC50) of 81 nM.
`C[C@H](c1ncccn1)N(Cc1ccc(C(F)(F)F)cn1)C(=O)c1cc2c(cc1F)nc(N)c1cncn12` [US20240262835, Compound 6] displayed an IC50 of 101 nM.
Regarding `C[C@H](c1ncccn1)N(Cc1ccc(C(F)(F)F)cn1)C(=O)c1cc2c(cn1)nc(N)c1cncn12` [US20240262835, Compound 10], inhibition was half-maximal at 379 nM (IC50).
